Measurements: the NIST ThermoML archive (doi:10.1016/j.fluid.2012.03.021)
Numbers after ± are expanded uncertainties.

Conditions: Liquid; for Critical pressure: Direct measurement; for Critical temperature: Pulse Heating

Critical pressure [kPa]	Critical temperature [K]	SMILES
2180 ± 180	784 ± 24	CCCC[c-]1cccc1.[Fe+2].c1cc[cH-]c1 [butylferrocene]
3280 ± 260	847 ± 26	CC(=O)c1ccc[cH-]1.[Fe+2].c1cc[cH-]c1 [acetylferrocene]
1590 ± 120	886 ± 26	O=C(c1ccccc1)c1ccc[cH-]1.[Fe+2].c1cc[cH-]c1 [benzoylferrocene]
3610 ± 200	785 ± 16	[CH]1C=CC=C1.[CH]1C=CC=C1.[Fe] [ferrocene]
